Series [1] relates to Enterococcus faecalis (OG1RF). The series can be described thus: Minimum inhibitory concentration (MIC), broth microdilution. Format: cell-based. As to conditions: Table 3; read-out: MIC E. faecalis. The method in brief:
(§1)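 Broth microdilution: two-fold serial dilutions (twelve concentrations) mixed 1:1 with overnight cultures diluted to ca. 10^6 cfu/mL in Mueller-Hinton media, incubated statically at 37° C for 72 hours. MIC is lowest concentration with no growth visible to the naked eye, majority of three independent experiments.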
On the technique in general: Dilution methods test growth across graded concentrations, often in twofold steps.

Series [2] deals with Escherichia coli (MC4100). Described as above. It counts as cell-based. As to conditions: Table 3; read-out: MIC E. coli. The gist of the method:
as §1

In series [3] the test system is Pseudomonas aeruginosa (PAO1). The series is described as above. It counts as cell-based. The settings on record: Table 3; read-out: MIC P. aeruginosa. The gist of the method:
as §1

The subject of series [4] is Staphylococcus aureus MSSA (SH1000). Described as above. Format: cell-based. The gist of the method:
as §1

Series [5] concerns CA-MRSA (USA300-0114). The description is as above. It counts as cell-based, Staphylococcus aureus. As to conditions: Table 4; USA300-0114; read-out: MIC CA-MRSA. The gist of the method: (§2)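 Two-fold serial dilutions (twelve concentrations) from aqueous stock; inoculum ca. 10^6 cfu/mL in Mueller-Hinton media, static incubation at 37 °C for 72 h. MIC read visually as lowest concentration with no visible growth, majority of three independent experiments.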

The next series relates to HA-MRSA (ATCC 33591). The series is described as above. The settings on record: Table 4; ATCC 33591; read-out: MIC HA-MRSA. Format: cell-based, Staphylococcus aureus. The method in brief:
as §2

Series [6] relates to S. aureus (MSSA, SH1000) biofilms. As to the kind of experiment: Minimum biofilm eradication concentration (MBEC), regrowth assay. As to conditions: Table 5; SH1000. Format: cell-based, Staphylococcus aureus. The gist of the method: (§3)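 Static 24 h biofilms at 37° C. (BHI for S. aureus, Todd Hewitt for E. faecalis), then 16 h compound exposure, PBS washes and overnight regrowth in fresh media. MBEC is the lowest concentration giving final OD595 below 0.1; four replicates per concentration.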

Another series has as its system E. faecalis biofilms. Described as above. Format: cell-based, Enterococcus faecalis. The settings on record: Table 5. The gist of the method: as §3
Series [7] concerns CA-MRSA (USA300-0114) biofilms. The series is described as above. Format: cell-based, Staphylococcus aureus. As to conditions: Table 5; USA300-0114. The method in brief: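 CA-MRSA USA300-0114 biofilms grown statically 24 h at 37 °C in BHI, then exposed to compound for 16 h at 37 °C. After PBS washes, biofilms regrown overnight in fresh media; MBEC is the lowest concentration giving OD595 below 0.1, four replicates per concentration.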

In series [8] the test system is red blood cells (defibrinated sheep blood). As to the kind of experiment: Hemolysis assay (Lysis20). The settings on record: Table 4; concentration at which less than 20% of red blood cells are lysed. The gist of the method:
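Defibrinated sheep red blood cells were incubated with compounds serially diluted in PBS, and the suspensions were read by OD. 1% Triton X served as 100% lysis and PBS as 0% lysis. Lysis20 is the concentration (μM) at which less than 20% of cells are lysed.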

The test system of series [9] is Staphylococcus aureus, Enterococcus faecalis, Escherichia coli and Pseudomonas aeruginosa. As to the kind of experiment: MIC, summary statements over the four bacteria. Format: cell-based. As to conditions: comparison of MIC values. The procedure: The term “minimum inhibitory concentration (MIC)” means the lowest concentration of an antimicrobial agent that will inhibit the visible growth of a microorganism after overnight incubation. MIC values against bacteria, for example, the Gram-positive Staphylococcus aureus and Enterococcus faecalis and the Gram-negative Escherichia coli and Pseudomonas aeruginosa were determined by standard methods. See also P. A. Wayne, Methods for Dilution Antimicrobial Tests for Bacteria that Grow Aerobically; Approved Standard, Ninth Edition, 2012, CLSI Document M07-A9, Vol. 32 No. 2.
With nearly three-dozen amphiphiles varying in structure and cationic nature synthesized, minimum inhibitory concentration (MIC) values against the Gram-positive Staphylococcus aureus and Enterococcus faecalis and the Gram-negative Escherichia coli and Pseudomonas aeruginosa were determined by standard methods. […] The commercially available antibacterial agent benzalkonium chloride (benzyldimethyldodecylammonium chloride, Bn,12) was tested for comparison. The broth microdilution for determining MIC values was performed as previously reported.
MIC variation mostly hinged on the length of alkyl chain, where the dodecyl chain was generally found to be optimal. […]

The test system of series [10] is CA-MRSA (USA300-0114). The series can be described thus: Resistance development, liquid culture serial passage. Format: cell-based, Staphylococcus aureus. As to conditions: over 24 days (>500 generations). The procedure:
(§4) Resistance development such as liquid culture resistance assay was performed. […] Once a day, an aliquot of bacterial culture from the highest concentration allowing bacterial growth was diluted 1:10,000 in fresh media containing a range of antibacterial compound. This process was repeated for several hundred generations.
(§5) Resistance Development Assays: Liquid culture serial passage protocols, in which bacteria are successively grown at sub-lethal concentrations of antibacterial compound, were employed.

In a further series the test system is MSSA (SH1000). The description is as above. It counts as cell-based, Staphylococcus aureus. The settings on record: over 24 days (>500 generations). As to the method: as §4, §5
The mark [11] stands for this setting: Table 3, read-out: MIC S. aureus.
Setting [12] is: Table 4, SH1000, read-out: MIC MSSA.

Like-named read-outs stand apart in the source and are kept apart here.

For the compound `CCCCCCCCCCCC[N+](C)(C)CCN(C)CCN(C)CC[N+](C)(C)CCCCCCCCCCCC.[Br-].[Br-]` [N4-12,0,0,12], the MIC (in general, the least concentration at which growth counts as inhibited) in series [1] worked out at 1 µM; in series [2], 1 µM; in series [3] it was 4 µM; in series [4] (setting [11]), 1 µM; in series [4] (setting [12]), 1 µM; in the series on CA-MRSA (USA300-0114) [5], 1 µM. The MIC with HA-MRSA (ATCC 33591) came to 1 µM. The “MBEC MSSA” value in [6] was found to be 50 µM. Also, the “MBEC E. faecalis” value in the series with E. faecalis biofilms worked out at 75 ± 25 µM. Further, in series [7], the “MBEC CA-MRSA” value came to 100 µM. Moreover, in [8], the Lysis20 worked out at 4 µM. Moreover, the “fold more bioactive than (N4-12,0,0,0)” value in [9] is listed as “about 8 fold”.
With `C=CC[N+](C)(CC[N+](C)(C)CCCCCCCCCCCC)CC[N+](C)(CC=C)CC[N+](C)(C)CCCCCCCCCCCC.[Br-].[Br-].[Br-].[Br-]` (centres unmarked) [N4-12,3A,3A,12], the minimum inhibitory concentration (MIC) in series [1] is reported as 1 µM; in series [2] it was 1 µM; in series [3] it was 2 µM; in [4] (setting [11]), 1 µM; in series [4] (setting [12]), 1 µM; with CA-MRSA (USA300-0114) [5], 1 µM. For the same compound, the MIC in the series with HA-MRSA (ATCC 33591) was determined as 0.5 µM. Further, the “MBEC MSSA” value in series [6] turned out to be 100 µM. Also, in the series with E. faecalis biofilms, the “MBEC E. faecalis” value was 200 µM. Besides, in series [7], the “MBEC CA-MRSA” value stood at 150 ± 50 µM. In [8], this compound registered a Lysis20 of 8 µM. For the same compound, in the series with CA-MRSA (USA300-0114) [10], the “resistance in serial passage, CA-MRSA (USA300-0114)” value is reported as “No resistance was observed”. The “resistance in serial passage, MSSA” value in the series on MSSA (SH1000) is “No resistance was observed”. Besides, the “fold more bioactive than (N4-12,0,0,0)” value in series [9] is given as “about 8 fold”.

(Values after US10398142B2, “Polycationic amphiphiles as antimicrobial agents” (priority 2013, dated 2019).)
